Test results taken from patent publication US12195471B2, “Salt of aldose reductase inhibitor, and preparation method and application thereof” (CSPC ZHONGQI PHARMACEUTICAL TECHNOLOGY (SHIJIAZHUANG) CO., …, priority 2019, dated 2025).

Experiments:
Format in all cases: physicochemical
Solubility test in water = settings: for solubility: thermodynamic from solid, in purified water, saturated state
Experimental: The salts obtained in Example 1, Comparative examples 1, 2 and 6, and the compound of formula A were tested for solubility in water, and the test method was as follows:
Test method: the samples to be tested were taken in a certain amount, gradually added to the purified water respectively, and continuously shaked until the samples reached the saturated state, the weighed amount of the samples to be tested and the used amount of the solvent were recorded, the concentrations at which the samples were dissolved were calculated, and the test results were shown in the following table: […]

[1] = Stability test, accelerated test at 40° C.±2° C./75% RH±5% RH; settings: for Content (%) / Maximum single impurity (%) / Moisture (%) / Total impurity (%): 40° C.±2° C./75% RH±5% RH
Experimental: The sodium salt of the compound of formula A obtained in Example 1 (packaging conditions: low-density polyethylene bag+polyester/aluminum/polyethylene composite bag for pharmaceutical packaging) was subjected to an accelerated test at 40° C.±2° C./75% RH±5% RH, and the results were as follows: […]

[2] = Hygroscopicity / stable existence of the obtained salt solid; settings: concluding statement
Experimental: With reference to the preparation method of Example 1, the preparation of alkaline amino acid salts: lysine salt, arginine salt, and proline salt of the compound of formula A was carried out using methanol as the reaction solvent.

Which results are given for `O=C([O-])Cc1nn(Cc2nc3cc(C(F)(F)F)ccc3s2)c(=O)c2nccnc12.[Na+]` [Example 1]?
solubility (Solubility test in water): 10000 µg/mL; solubility in water (in words) (Solubility test in water): good solubility; Content (%) ([1]; 0 Month): 100.8%; Maximum single impurity (%) ([1]; 0 Month): 0.03%; Moisture (%) ([1]; 0 Month): 0.6%; Total impurity (%) ([1]; 0 Month): 0.40%; Content (%) ([1]; 1 Month): 99.6%; Maximum single impurity (%) ([1]; 1 Month): 0.03%; Moisture (%) ([1]; 1 Month): 0.7%; Total impurity (%) ([1]; 1 Month): 0.45%; Content (%) ([1]; 2 Month): 99.9%; Maximum single impurity (%) ([1]; 2 Month): 0.03%; Moisture (%) ([1]; 2 Month): 0.7%; Total impurity (%) ([1]; 2 Month): 0.37%; Content (%) ([1]; 3 Month): 99.6%; Maximum single impurity (%) ([1]; 3 Month): 0.03%; Moisture (%) ([1]; 3 Month): 0.8%; Total impurity (%) ([1]; 3 Month): 0.42%; Content (%) ([1]; 6 Month): 100.9%; Maximum single impurity (%) ([1]; 6 Month): 0.03%; Moisture (%) ([1]; 6 Month): 0.8%; Total impurity (%) ([1]; 6 Month): 0.54%; quality stability (in words) ([1]; concluding statement): stable quality; hygroscopicity (in words) [2]: low hygroscopicity

What does the source list for `O=C(O)Cc1nn(Cc2nc3cc(C(F)(F)F)ccc3s2)c(=O)c2nccnc12` [Compound of formula A, reference compound]?
solubility (Solubility test in water): 35 µg/mL; solubility in water (in words) (Solubility test in water): insoluble in water
